According to ChEMBL document CHEMBL1135206, “Albumin affinity tags increase peptide half-life in vivo” (Bioorg Med Chem Lett, 2002):
*1 amine or outer side, *2 acyl side, *3 side chain or, on linkers, in order; H or OH if unused. Where a SMILES comes first, the peptide text is derived from it. Bridges are numbered along the chain shown (N, C = ends). [ ]: non-standard residue; d: D form. The star is where a group is joined. X3 = C[C@@H](C(=O)[*:2])N(Cc1ccccc1OC(F)(F)F)[*:1]; X5 = C[C@@H](C(=O)[*:2])N(Cc1cccc2ccccc12)[*:1]; 2Naphthylsulfonyl = O=S(=O)(c1ccc2ccccc2c1)*; X2 = O=C(CCC(=O)*)NS(=O)(=O)c1ccc2ccccc2c1; Benzoyl(4-Ph) = O=C(c1ccc(-c2ccccc2)cc1)*; Quinoline3carbonyl = O=C(c1cnc2ccccc2c1)*; X6 = O=C(c1ccc(-c2ccccc2[N+](=O)[O-])o1)*; Mts = Cc1cc(C)c(S(=O)(=O)*)c(C)c1; Quinaldoyl = O=C(c1ccc2ccccc2n1)*; NH(4-Cl-phenyl) = Clc1ccc(N*)cc1; CO = O=C([*:1])[*:2]; X4 = Cc1cccc(N*)c1

Legend:
Albumin = Albumin (Homo sapiens, UniProt P02768); assay: In vitro binding affinity for human serum albumin.; set-up: unit not given here
Coagulation factor VII = molecular target: T1, Coagulation factor VII (Homo sapiens, UniProt P08709); assay: Inhibition of amino terminally biotinylated E-76 peptide binding to immobilized fVIIa
T1 sequence (P08709 whole entry): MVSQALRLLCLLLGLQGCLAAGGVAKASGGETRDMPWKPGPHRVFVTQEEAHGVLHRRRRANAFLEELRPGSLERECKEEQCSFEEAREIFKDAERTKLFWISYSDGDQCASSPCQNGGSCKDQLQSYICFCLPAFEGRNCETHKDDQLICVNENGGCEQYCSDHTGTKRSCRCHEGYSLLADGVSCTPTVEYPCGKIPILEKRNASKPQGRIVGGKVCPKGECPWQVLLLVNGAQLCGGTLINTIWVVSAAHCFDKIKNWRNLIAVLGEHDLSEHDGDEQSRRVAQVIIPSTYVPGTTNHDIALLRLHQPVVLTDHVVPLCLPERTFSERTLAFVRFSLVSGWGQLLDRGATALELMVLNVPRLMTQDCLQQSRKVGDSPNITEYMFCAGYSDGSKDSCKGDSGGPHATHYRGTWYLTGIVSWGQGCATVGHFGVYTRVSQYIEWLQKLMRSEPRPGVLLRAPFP

[1] = Plasma half-life in male New Zealand white rabbits after administration via an indwelling catheter in an ear vein at 5 mg/kg; assay type: ADME, organism-based, Oryctolagus cuniculus; set-up: dose 5 mg/kg; conditions: rabbit, iv
[2] = Clearance in male New Zealand white rabbits after administration via an indwelling catheter in an ear vein at 5 mg/kg; assay type: ADME, organism-based, Oryctolagus cuniculus; set-up: dose 5 mg/kg; conditions: rabbit, in vivo, iv
[3] = Mean retention time in male New Zealand white rabbits after administration via an indwelling catheter in an ear vein at 5 mg/kg; assay type: ADME, organism-based, Oryctolagus cuniculus; set-up: dose 5 mg/kg; conditions: rabbit, in vivo, iv
[4] = Clearance in male New Zealand white rabbits after i.v. administration at 2.0 mg/kg; assay type: ADME, organism-based, Oryctolagus cuniculus; set-up: dose 2 mg/kg, route intravenous; conditions: rabbit, in vivo, iv
[5] = Mean retention time in male New Zealand white rabbits after i.v. administration at 2.0 mg/kg; assay type: ADME, organism-based, Oryctolagus cuniculus; set-up: dose 2 mg/kg, route intravenous; conditions: rabbit, in vivo, iv
[6] = Plasma half-life in male New Zealand white rabbits after i.v. administration at 2.0 mg/kg; assay type: ADME, organism-based, Oryctolagus cuniculus; set-up: dose 2 mg/kg, route intravenous; conditions: rabbit, iv

Albumin, sequence (P02768 whole entry): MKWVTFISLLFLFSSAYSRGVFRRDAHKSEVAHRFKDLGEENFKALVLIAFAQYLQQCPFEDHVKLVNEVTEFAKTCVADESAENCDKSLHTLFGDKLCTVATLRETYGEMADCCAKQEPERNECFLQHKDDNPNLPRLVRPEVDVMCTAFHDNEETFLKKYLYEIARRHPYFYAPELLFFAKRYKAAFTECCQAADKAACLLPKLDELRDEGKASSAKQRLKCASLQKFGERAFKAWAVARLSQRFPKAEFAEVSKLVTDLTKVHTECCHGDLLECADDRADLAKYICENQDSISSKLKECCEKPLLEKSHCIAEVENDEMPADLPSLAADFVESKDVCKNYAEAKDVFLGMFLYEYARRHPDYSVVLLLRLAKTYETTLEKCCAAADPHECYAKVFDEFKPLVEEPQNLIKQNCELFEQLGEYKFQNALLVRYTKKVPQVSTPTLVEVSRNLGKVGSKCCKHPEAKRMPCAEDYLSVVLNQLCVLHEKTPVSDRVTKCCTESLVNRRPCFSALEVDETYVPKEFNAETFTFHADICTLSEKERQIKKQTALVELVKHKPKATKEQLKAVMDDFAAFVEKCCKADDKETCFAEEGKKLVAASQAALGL

CC[C@H](C)[C@@H]1NC(=O)[C@H](CCCNC(=N)N)NC(=O)[C@@H]2CCCN2C(=O)[C@H](CC(N)=O)NC(=O)[C@H](CC(=O)O)NC(=O)[C@@H](NC(=O)[C@H](CC(C)C)NC(=O)[C@H](C)NS(=O)(=O)c2ccc3ccccc3c2)CSSC[C@@H](C(=O)N[C@@H](CCC(N)=O)C(=O)N[C@@H](Cc2ccccc2)C(=O)N[C@H](C(=O)N[C@@H](CCC(=O)O)C(=O)NCC(N)=O)C(C)C)NC(=O)[C@H](Cc2ccc(O)cc2)NC(=O)[C@H](Cc2c[nH]c3ccccc23)NC(=O)[C@H](CCCNC(=N)N)NC(=O)[C@H](CC(=O)O)NC1=O (2Naphthylsulfonyl-ALCDNPRIDRWYCQFVEG-NH2; disulfide 3-13)
Binding affinity (Albumin): 0.92 | IC50 (Coagulation factor VII): 20.4 nM

CC[C@H](C)[C@@H]1NC(=O)[C@H](CCCN=C(N)N)NC(=O)[C@@H]2CCCN2C(=O)[C@H](CC(N)=O)NC(=O)[C@H](CC(=O)O)NC(=O)[C@@H](NC(=O)[C@H](CC(C)C)NC(=O)[C@H](C)NC(C)=O)CSSC[C@@H](C(=O)N[C@@H](CCC(N)=O)C(=O)N[C@@H](Cc2ccccc2)C(=O)N[C@H](C(=O)N[C@@H](CCC(=O)O)C(=O)NCC(N)=O)C(C)C)NC(=O)[C@H](Cc2ccc(O)cc2)NC(=O)[C@H](Cc2c[nH]c3ccccc23)NC(=O)[C@H](CCCN=C(N)N)NC(=O)[C@H](CC(=O)O)NC1=O (Ac-ALCDNPRIDRWYCQFVEG-NH2; disulfide 3-13)
half-life [1]: 5 min | Binding affinity (Albumin): 0.21 | clearance [2]: 33 mL/min/kg | MRT [3]: 3.2 min | IC50 (Coagulation factor VII): 1.1 nM

CC[C@H](C)[C@@H]1NC(=O)[C@H](CCCN=C(N)N)NC(=O)[C@@H]2CCCN2C(=O)[C@H](CC(N)=O)NC(=O)[C@H](CC(=O)O)NC(=O)[C@@H](NC(=O)[C@H](CC(C)C)NC(=O)[C@H](C)NCc2ccccc2OC(F)(F)F)CSSC[C@@H](C(=O)N[C@@H](CCC(N)=O)C(=O)N[C@@H](Cc2ccccc2)C(=O)N[C@H](C(=O)N[C@@H](CCC(=O)O)C(=O)NCC(N)=O)C(C)C)NC(=O)[C@H](Cc2ccc(O)cc2)NC(=O)[C@H](Cc2c[nH]c3ccccc23)NC(=O)[C@H](CCCN=C(N)N)NC(=O)[C@H](CC(=O)O)NC1=O (H-[X3]LCDNPRIDRWYCQFVEG-NH2; disulfide 3-13)
Binding affinity (Albumin): 0.93 | IC50 (Coagulation factor VII): 13.4 nM

CC[C@H](C)[C@@H]1NC(=O)[C@H](CCCNC(=N)N)NC(=O)[C@@H]2CCCN2C(=O)[C@H](CC(N)=O)NC(=O)[C@H](CC(=O)O)NC(=O)[C@@H](NC(=O)[C@H](CC(C)C)NC(=O)[C@H](C)NCc2cccc3ccccc23)CSSC[C@@H](C(=O)N[C@@H](CCC(N)=O)C(=O)N[C@@H](Cc2ccccc2)C(=O)N[C@H](C(=O)N[C@@H](CCC(=O)O)C(=O)NCC(N)=O)C(C)C)NC(=O)[C@H](Cc2ccc(O)cc2)NC(=O)[C@H](Cc2c[nH]c3ccccc23)NC(=O)[C@H](CCCNC(=N)N)NC(=O)[C@H](CC(=O)O)NC1=O (H-[X5]LCDNPRIDRWYCQFVEG-NH2; disulfide 3-13)
Binding affinity (Albumin): 0.69 | IC50 (Coagulation factor VII): 1.6 nM

CC[C@H](C)[C@@H]1NC(=O)[C@H](CCCNC(=N)N)NC(=O)[C@@H]2CCCN2C(=O)[C@H](CC(N)=O)NC(=O)[C@H](CC(=O)O)NC(=O)[C@@H](NC(=O)[C@H](CC(C)C)NC(=O)[C@H](C)NS(=O)(=O)c2c(C)cc(C)cc2C)CSSC[C@@H](C(=O)N[C@@H](CCC(N)=O)C(=O)N[C@@H](Cc2ccccc2)C(=O)N[C@H](C(=O)N[C@@H](CCC(=O)O)C(=O)NCC(N)=O)C(C)C)NC(=O)[C@H](Cc2ccc(O)cc2)NC(=O)[C@H](Cc2c[nH]c3ccccc23)NC(=O)[C@H](CCCNC(=N)N)NC(=O)[C@H](CC(=O)O)NC1=O (Mts-ALCDNPRIDRWYCQFVEG-NH2; disulfide 3-13)
Binding affinity (Albumin): 0.82 | IC50 (Coagulation factor VII): 10 nM

CC[C@H](C)[C@@H]1NC(=O)[C@H](CCCN=C(N)N)NC(=O)[C@@H]2CCCN2C(=O)[C@H](CC(N)=O)NC(=O)[C@H](CC(=O)O)NC(=O)[C@@H](NC(=O)[C@H](CC(C)C)NC(=O)[C@H](C)NC(=O)c2ccc3ccccc3n2)CSSC[C@@H](C(=O)N[C@@H](CCC(N)=O)C(=O)N[C@@H](Cc2ccccc2)C(=O)N[C@H](C(=O)N[C@@H](CCC(=O)O)C(=O)NCC(N)=O)C(C)C)NC(=O)[C@H](Cc2ccc(O)cc2)NC(=O)[C@H](Cc2c[nH]c3ccccc23)NC(=O)[C@H](CCCN=C(N)N)NC(=O)[C@H](CC(=O)O)NC1=O (Quinaldoyl-ALCDNPRIDRWYCQFVEG-NH2; disulfide 3-13)
Binding affinity (Albumin): 0.64 | IC50 (Coagulation factor VII): 2.9 nM

CC[C@H](C)[C@@H]1NC(=O)[C@H](CCCN=C(N)N)NC(=O)[C@@H]2CCCN2C(=O)[C@H](CC(N)=O)NC(=O)[C@H](CC(=O)O)NC(=O)[C@@H](NC(=O)[C@H](CC(C)C)NC(=O)[C@H](C)NC(=O)c2cnc3ccccc3c2)CSSC[C@@H](C(=O)N[C@@H](CCC(N)=O)C(=O)N[C@@H](Cc2ccccc2)C(=O)N[C@H](C(=O)N[C@@H](CCC(=O)O)C(=O)NCC(N)=O)C(C)C)NC(=O)[C@H](Cc2ccc(O)cc2)NC(=O)[C@H](Cc2c[nH]c3ccccc23)NC(=O)[C@H](CCCN=C(N)N)NC(=O)[C@H](CC(=O)O)NC1=O (Quinoline3carbonyl-ALCDNPRIDRWYCQFVEG-NH2; disulfide 3-13)
Binding affinity (Albumin): 0.64 | IC50 (Coagulation factor VII): 11.8 nM

CC[C@H](C)[C@@H]1NC(=O)[C@H](CCCN=C(N)N)NC(=O)[C@@H]2CCCN2C(=O)[C@H](CC(N)=O)NC(=O)[C@H](CC(=O)O)NC(=O)[C@@H](NC(=O)[C@H](CC(C)C)NC(=O)[C@H](C)NC(=O)CCC(=O)NS(=O)(=O)c2ccc3ccccc3c2)CSSC[C@@H](C(=O)N[C@@H](CCC(N)=O)C(=O)N[C@@H](Cc2ccccc2)C(=O)N[C@H](C(=O)N[C@@H](CCC(=O)O)C(=O)NCC(N)=O)C(C)C)NC(=O)[C@H](Cc2ccc(O)cc2)NC(=O)[C@H](Cc2c[nH]c3ccccc23)NC(=O)[C@H](CCCN=C(N)N)NC(=O)[C@H](CC(=O)O)NC1=O (X2-ALCDNPRIDRWYCQFVEG-NH2; disulfide 3-13)
clearance [4]: 1.6 mL/min/kg | MRT [5]: 35 min | Binding affinity (Albumin): 0.97 | half-life [6]: 30 min | IC50 (Coagulation factor VII): 1 nM

CC[C@H](C)[C@@H]1NC(=O)[C@H](CCCNC(=N)N)NC(=O)[C@@H]2CCCN2C(=O)[C@H](CC(N)=O)NC(=O)[C@H](CC(=O)O)NC(=O)[C@@H](NC(=O)[C@H](CC(C)C)NC(=O)[C@H](C)NC(=O)c2ccc(-c3ccccc3[N+](=O)[O-])o2)CSSC[C@@H](C(=O)N[C@@H](CCC(N)=O)C(=O)N[C@@H](Cc2ccccc2)C(=O)N[C@H](C(=O)N[C@@H](CCC(=O)O)C(=O)NCC(N)=O)C(C)C)NC(=O)[C@H](Cc2ccc(O)cc2)NC(=O)[C@H](Cc2c[nH]c3ccccc23)NC(=O)[C@H](CCCNC(=N)N)NC(=O)[C@H](CC(=O)O)NC1=O (X6-ALCDNPRIDRWYCQFVEG-NH2; disulfide 3-13)
Binding affinity (Albumin): 0.79 | IC50 (Coagulation factor VII): 1 nM

CC[C@H](C)[C@@H]1NC(=O)[C@H](CCCN=C(N)N)NC(=O)[C@@H]2CCCN2C(=O)[C@H](CC(N)=O)NC(=O)[C@H](CC(=O)O)NC(=O)[C@@H](NC(=O)[C@H](CC(C)C)NC(=O)[C@H](C)NC(=O)c2ccc(-c3ccccc3)cc2)CSSC[C@@H](C(=O)N[C@@H](CCC(N)=O)C(=O)N[C@@H](Cc2ccccc2)C(=O)N[C@H](C(=O)N[C@@H](CCC(=O)O)C(=O)NCC(N)=O)C(C)C)NC(=O)[C@H](Cc2ccc(O)cc2)NC(=O)[C@H](Cc2c[nH]c3ccccc23)NC(=O)[C@H](CCCN=C(N)N)NC(=O)[C@H](CC(=O)O)NC1=O ({Benzoyl(4-Ph)}-ALCDNPRIDRWYCQFVEG-NH2; disulfide 3-13)
half-life [1]: 15 min | Binding affinity (Albumin): 0.62 | clearance [2]: 4.3 mL/min/kg | MRT [3]: 17 min | IC50 (Coagulation factor VII): 4 nM

CC[C@H](C)[C@@H]1NC(=O)[C@H](CCCN=C(N)N)NC(=O)[C@@H]2CCCN2C(=O)[C@H](CC(N)=O)NC(=O)[C@H](CC(=O)O)NC(=O)[C@@H](NC(=O)[C@H](CC(C)C)NC(=O)[C@H](C)NC(=O)Nc2ccc(Cl)cc2)CSSC[C@@H](C(=O)N[C@@H](CCC(N)=O)C(=O)N[C@@H](Cc2ccccc2)C(=O)N[C@H](C(=O)N[C@@H](CCC(=O)O)C(=O)NCC(N)=O)C(C)C)NC(=O)[C@H](Cc2ccc(O)cc2)NC(=O)[C@H](Cc2c[nH]c3ccccc23)NC(=O)[C@H](CCCN=C(N)N)NC(=O)[C@H](CC(=O)O)NC1=O ({NH(4-Cl-phenyl)-CO}-ALCDNPRIDRWYCQFVEG-NH2; disulfide 3-13)
Binding affinity (Albumin): 0.65 | IC50 (Coagulation factor VII): 13.4 nM

CC[C@H](C)[C@@H]1NC(=O)[C@H](CCCNC(=N)N)NC(=O)[C@@H]2CCCN2C(=O)[C@H](CC(N)=O)NC(=O)[C@H](CC(=O)O)NC(=O)[C@@H](NC(=O)[C@H](CC(C)C)NC(=O)[C@H](C)NC(=O)Nc2cccc(C)c2)CSSC[C@@H](C(=O)N[C@@H](CCC(N)=O)C(=O)N[C@@H](Cc2ccccc2)C(=O)N[C@H](C(=O)N[C@@H](CCC(=O)O)C(=O)NCC(N)=O)C(C)C)NC(=O)[C@H](Cc2ccc(O)cc2)NC(=O)[C@H](Cc2c[nH]c3ccccc23)NC(=O)[C@H](CCCNC(=N)N)NC(=O)[C@H](CC(=O)O)NC1=O ({X4-CO}-ALCDNPRIDRWYCQFVEG-NH2; disulfide 3-13)
Binding affinity (Albumin): 0.59 | IC50 (Coagulation factor VII): 1.8 nM
